Data published in patent US20080076050A1, “P-Terphenyl Compound And Photosensitve Body For Electrophotography Using Such Compound” (Hodogaya Chemical Co., Ltd., priority 2004, published 2008).

How the values were obtained:
[1] = Dissolving the charge transporting agent in dichloroethane solution of polycarbonate resin for the charge transporting layer; format: physicochemical; settings: 8.0% dichloroethane solution of polycarbonate resin (Iupilon Z)
Method: On the other hand, 1.5 parts of the p-terphenyl compound (compound No. 1) synthesized in Synthesis Example 1 was added as a charge transporting agent to 18.75 parts of a 8.0% dichloroethane solution of a polycarbonate resin (Iupilon Z, manufactured by Mitsubishi Engineering-Plastics Corporation), followed by application of an ultrasonic wave to completely dissolve the p-terphenyl compound. This solution was applied onto the above-mentioned charge generating layer with a wire bar, and dried at 110° C. under normal pressure for 30 minutes to form a charge transporting layer having a film thickness of 20 μm, thus preparing photoconductor No. 1.
Photoconductor No. 7 was prepared in the same manner as in Photoconductor Example 1 with the exception that the charge transporting agent used in Photoconductor Example 1 was changed to the same amount of the p-terphenyl compound (comparative compound No. 1) synthesized in Synthesis Comparative Example 1.
On the other hand, 0.9 part of the p-terphenyl compound (compound No. 1) synthesized in Synthesis Example 1 was added as a charge transporting agent to 11.25 parts of a 8.0% dichloroethane solution of a polycarbonate resin (Iupilon Z, manufactured by Mitsubishi Engineering-Plastics Corporation), followed by application of an ultrasonic wave to completely dissolve the p-terphenyl compound. […]

[2] = Solubility in organic solvents; format: physicochemical; settings: 25° C., amount of solute (g) based on 100 ml of solvent
Method: The solubility of Synthesis Examples 1 to 3 and Synthesis Comparative Example 1 in organic solvents (1,2-dichloroethane, toluene and tetrahydrofuran) at 25° C. was measured. The solubility was indicated by the amount of solute (g) based on 100 ml of solvent.

Row | SMILES | melting point | Solubility of charge transporting agent when preparing the photoconductor [1] | Solubility in 1,2-Dichloroethane [2] | Solubility in Tetrahydrofuran [2] | Solubility in Toluene [2]
1 | Cc1ccc(N(c2ccc(C)cc2)c2ccc(-c3ccc(-c4ccc(N(c5ccc(C)cc5)c5ccc(C)cc5)cc4)cc3)cc2)cc1 [Comparative Compound 1, N,N,N′,N′-tetra-p-tolyl-4,4″-diamino-p-terphenyl] | 232.5 to 233.5 °C | insoluble | 2.3 g/100 ml | 12.4 g/100 ml | 2.2 g/100 ml
2 | Cc1ccc(N(c2ccc(-c3ccc(-c4ccc(N(c5ccc(C)cc5)c5ccc6c(c5)CCC6)cc4)cc3)cc2)c2ccc3c(c2)CCC3)cc1 [Compound No. 1, N,N′-bisindane-5-yl-N,N′-di-p-tolyl-4,4″-diamino-p-terphenyl] | 207.4 to 208.1 °C | – | 4.2 g/100 ml | 20.8 g/100 ml | 11.0 g/100 ml
3 | COc1ccc(N(c2ccccc2)c2ccc(-c3ccc(-c4ccc(N(c5ccccc5)c5ccc(OC)cc5C)cc4)cc3)cc2)c(C)c1 [Compound No. 2, N,N′-di(4-methoxy-2-methylphenyl)-N,N′-diphenyl-4,4″-diamino-p-terphenyl] | 180.8 to 183.4 °C | – | 3.5 g/100 ml | 18.1 g/100 ml | 9.3 g/100 ml

Results, then the compound that gave them:

Row | melting point | Solubility of charge transporting agent when preparing the photoconductor [1] | Solubility in 1,2-Dichloroethane [2] | Solubility in Tetrahydrofuran [2] | Solubility in Toluene [2] | SMILES
4 | 232.6 to 233.2 °C | – | 30.0 or more g/100 ml | 30.0 or more g/100 ml | 30.0 or more g/100 ml | COc1ccc(N(c2ccc(-c3ccccc3)cc2)c2ccc(-c3ccc(-c4ccc(N(c5ccc(-c6ccccc6)cc5)c5ccc(OC)cc5C)cc4)cc3)cc2)c(C)c1 [Compound No. 3, N,N′-bis-biphenyl-4-yl-N,N′-di-4-methoxy-2-methylphenyl-4,4″-diamino-p-terphenyl]
5 | 167.2 to 168.2 °C | – | – | – | – | Cc1ccc(N(c2ccccc2)c2ccc(-c3ccc(-c4ccc(N(c5ccccc5)c5ccc(C)cc5)cc4)cc3)cc2)cc1 [Compound No. 17, N,N′-diphenyl-N,N′-di-p-tolyl-4,4″-diamino-p-terphenyl]
